The subject of one assay is A549 cells. The assay can be described thus: Cell cycle G2/M arrest, PI staining and flow cytometry. Particulars: 0.3-9 nM AST-3424 ± 5 µM Nutlin-3 (AST-3424 pre-treatment 2 hours), second experiment (Figure 10). The assay is classed as cell-based. As to the method:
The remaining operations were similar to those of the above experiment, and the compound treatment was as follows:
• For H460 cell line, 1% DMSO, adding 5 µM Nutlin-3 for treatment for 22 hours, adding 0.03 nM AST-3424 for treatment for 24 hours, adding 0.1 nM AST-3424 for treatment for 24 hours, adding 0.3 nM AST-3424 for treatment for 24 hours, and adding 1 nM AST-3424 for treatment for 24 hours; • For A549 cell line, 1% DMSO, adding 5 µM Nutlin-3 for treatment for 22 hours, adding 0.3 nM AST-3424 for treatment for 24 hours, adding 1 nM AST-3424 for treatment for 24 hours, adding […] AST-3424 for treatment for 24 hours.
For A549 cell line, • Adding 0.3 nM AST-3424 for pre-treatment for 2 hours, and then adding 5 µM Nutlin-3 for co-treatment for 22 hours; • Adding 1 nM AST-3424 for pre-treatment for 2 hours, and then adding 5 µM Nutlin-3 for co-treatment for 22 hours; • Adding 3 nM AST-3424 for pre-treatment for 2 hours, and then adding 5 µM Nutlin-3 for co-treatment for 22 hours; • Adding 9 nM AST-3424 for pre-treatment for 2 hours, and then adding 5 µM Nutlin-3 for co-treatment for 22 hours.

The subject of a further assay is HPAF-II cells. Description: Applicant's previous cancer cell proliferation inhibition test. As to conditions: Homo sapiens, single drug, applicant's previous test data. The assay is classed as cell-based.
The test system of assay [1] is cell lines and mouse tumor models of KRAS pathogenic mutations. As to conditions: in vitro and in vivo pharmacodynamic experiments; data of WO2023046060A1; cited from earlier work.
Assay [2] has as its system cell lines and mouse tumor models of BRCA pathogenic mutations. Particulars: in vitro and in vivo pharmacodynamic experiments; data of WO2023174319A; cited from earlier work.
Another assay relates to NCI-H460 P53KO #1 cells. Description: In vitro proliferation under normoxia conditions (CTG, 72 hours), Example 29. As to conditions: Table 25. The assay is classed as cell-based, human. As to the method: • 1) NCI-H460 and NCI-H460 P53KO # 1 cell suspensions were added to 96-well plate (100 µL per well), with a cell density of 2000 cells/well. • 2) The cells were cultured overnight in a 37°C, 5% CO2 incubator. • 3) Compound Treatment
Monotherapy: 24 hours after cell plating, each well was supplemented with 99.5 µL of growth medium. Then, 0.5 µL of test compounds at different concentrations was added. The plate was gently shaken to ensure even mixing, and then placed in a 37°C, 5% CO2 incubator.
Combination therapy: 24 hours after cell plating, each well was supplemented with 99 µL of growth medium. Then, 0.5 µL of the combination compound was added. The plate was gently shaken to ensure even mixing, and then placed in an incubator for 2 hours. Then, 0.5µL of test compounds at different concentrations was added. The plate was gently shaken to ensure even mixing, and then placed in a 37°C, 5% CO2 incubator. • 4) The cell plate was placed in the incubator for 72 hours. • 5) The cell plate to be tested was placed at room temperature and equilibrated for 30 minutes, and 100 µL of medium was discarded from each well. • 6) 25 µL of CTG reagent was added to each well, placed at a fast shaker to shake for 2 minutes, and placed at room temperature for 30 minutes (protected from light). • 7) The chemiluminescence signal value was read using a multifunctional microplate reader with a reading time of 1000 ms. • 8) IC50 (half maximal inhibitory concentration) values were calculated using GraphPad Prism 5 software.

The source of these data is patent EP4796125A1, “TREATMENT OF PATIENT WITH NEGATIVE P53 GENE MUTATION, POSITIVE KRAS GENE MUTATION AND POSITIVE BRCA MUTATION” (Ascentawits Pharmaceuticals, Ltd., priority 2023, dated 2025).

By IC50 is commonly meant the point on the concentration scale where inhibition reaches its midpoint. `C[C@H](OP(=O)(N1CC1)N1CC1)c1ccc([N+](=O)[O-])c(Oc2cccc(C(=O)N(C)C)c2)c1` [AST-3424]: the “G2/M cell cycle arrest” value with A549 cells is on record as “induces concentration-dependent G2/M cell cycle arrest”. Also, the IC50 with HPAF-II cells was determined as 107 nM; in the assay with NCI-H460 P53KO #1 cells (Homo sapiens, NCI-H460 P53KO # 1, normoxia, alone or + 3 µM AST-3021), 5.45 nM. For the same molecule, the “sensitivity of cell lines and mouse tumor models of KRAS pathogenic mutations” value in assay [1] is given as “more sensitive”. Further, in assay [2], the “sensitivity of cell lines and mouse tumor models of BRCA pathogenic mutations” value is on record as “more sensitive”. The “Ratio, knockout / wild-type” value in the assay with NCI-H460 P53KO #1 cells (IC50 in NCI-H460 P53KO # 1 / NCI-H460) is given as 12.67.
